According to publication PMC6471062, “Suppression of the Ubiquitin Pathway by Small Molecule Binding to Ubiquitin Enhances Doxorubicin Sensitivity of the Cancer Cells” (Molecules, 2019):

How the values were obtained:
[1] = biological target: UCHL1 (Homo sapiens); experiment: Deubiquitination assay, cleavage of GST-Ubiquitin-HA by UCHL1 (SDS-PAGE band intensity); format: biochemical
Procedure: For in vitro ubiquitination assays, 500 µM of ubiquitin was used for each ubiquitination reaction as described previously, in the absence or presence of 50–500 µM of CR. […] The generation of GST-ubiquitin from GST-Ubiquitin-HA as the mobility shifts were analyzed on 12.5% SDS-PAGE visualized by Coomassie blue staining. Band intensities were quantified by ImageJ [55] and used to generate the IC50 curves (log inhibitor vs. normalized response with variable slope) by GraphPad Prism version 6.0 for Windows (GraphPad Software, San Diego, CA, USA, www.graphpad.com).

[2] = tested on: H1299 cells; experiment: Total ubiquitination state of non-Dox-treated cells (immunoblot, immunofluorescence); format: cell-based; conditions: H1299, 1.0 and 10 μM CR, 12 h
Procedure: Cells were seeded in the SPL 4 wells cell culture chamber slide 24 h before experiment. Cells were treated with an indicated compound for an indicated time. The cells were fixed with 4% formaldehyde for 15 min followed by three times of PBS washing. Cells were permeabilized by incubation with PBS containing 0.5% Triton-X100 and 5% FBS for 30 min, and then blocked with blocking buffer (PBS, 5% FBS, 0.3% Triton X-100) for 1.5 h. Subsequently, cells were incubated with primary antibody at 1/200 dilution in blocking buffer overnight and then washed with blocking buffer five times (5 min each) before incubation with fluorescence-conjugated secondary antibody at 1/200 dilution in blocking buffer for 1 h. Cells were then washed with blocking buffer five times (5 min each) before incubation with DAPI for 10 min and three times washing with PBS. Slides were covered with the coverslip in the presence of mounting solution (cat # 475904, MOWIOL) and subjected to confocal imaging. Images acquired in confocal imaging were subjected to fluorescence intensity analysis using ImageJ [55]. Fluorescence signal representing a particular ubiquitin chain level was analyzed and normalized with the intensity of DAPI. Data were analyzed using GraphPad Prism version 6.0 for Windows with two tail t-test for statistical data analysis. page 6: Figure S6. Effect of CR on the ubiquitination state of none-treated cells. […]

[3] = tested on: H1299 cells; experiment: Cytotoxicity, cell viability assay; format: cell-based
Procedure: (§1) Cell viability assays were performed as described previously. For the caspase assays, the media were removed, and cells were lysed in 200 µL lysis buffer containing 50 µL Caspase Glo 3/7 solution and incubated for 15 min. Results were observed by measuring the luminescence signal using KOMM-Nr (Berthold Technologies, Bad Wildbad, Germany) and normalized with the total protein concentration measured by the Bradford assay. Data were analyzed using GraphPad Prism version 6.0 for Windows with two tail t-test for statistical data analysis […]
Figure S7. Cytotoxicity of CR to cancer cells. H1299 cells were cultured in 96 -well plates. CR was added to final concentrations of 0.0 – 50.0 µM, and the cells were incubated for 24 h followed by cell viability assay. All error bars represent the standard deviation from at least 4 independent experiments. Statistical comparisons between groups were determined by Student’s t -test. If p -values are less than 0.05, they are statistically significant . NS, not […]
(1 picture or pasted object on this page, not shown here)

[4] = tested on: H1299 cells; experiment: Dox-induced cell death, colorimetric cell viability, H1299; format: cell-based; conditions: 10 µM CR or 5 µM NSC697923 12 h, then Dox 1.25–5.0 μM 12 h
Procedure: (§2) Figure 7 CR enhances Dox sensitivity of cancer cells. (a,b) Enhancement of Dox-induced apoptosis of cancer cells by CR treatment. Dox–induced apoptosis of H1299 (a) and HCT116 (b) was quantified by colorimetric cell viability after treating 10 µM CR for 12 h followed by 12h treatment of Dox (0.0–5.0 µM). […] Caspase activity was quantified by luminogenic caspase activity assay. […] All error bars represent the standard deviation from at least four independent experiments. Statistical significance was calculated by the Student’s t-test (** p < 0.01, *** p < 0.001).
as §1
(§3) Figure S8. NSC697923 enhances Dox sensitivity of cancer cells. (a, b) Effect of NSC697923 to cancer cells’ viability in Dox treatment . Dox–induced cell death of H1299 ( a) and HCT116 ( b) was quantified by colorimetric cell viability assay after treating 5 µM NSC697923 for 12 h followed by 12h treatment of Dox (0.0 […]
NSC697923. Caspase activity was quantified by luminogenic caspase activity assay. All error bars represent the standard deviation from at least 4 independent experiments. *, P<0.05; **, P<0.01; ***, P<0.001.

[5] = tested on: H1299 cells; experiment: Luminogenic caspase activity assay (Caspase Glo 3/7), H1299; format: cell-based; conditions: 10 µM CR or 5 µM NSC697923 with Dox
Procedure: as §2
as §1, with “assay.” for “assay. Data were analyzed using GraphPad Prism version 6.0 for Windows with two tail t-test for statistical data analysis”
as §3
NSC697923. Caspase activity was quantified by luminogenic caspase activity assay. […]

UCHL1 (Homo sapiens), sequence (P09936 whole entry, other chains not shown): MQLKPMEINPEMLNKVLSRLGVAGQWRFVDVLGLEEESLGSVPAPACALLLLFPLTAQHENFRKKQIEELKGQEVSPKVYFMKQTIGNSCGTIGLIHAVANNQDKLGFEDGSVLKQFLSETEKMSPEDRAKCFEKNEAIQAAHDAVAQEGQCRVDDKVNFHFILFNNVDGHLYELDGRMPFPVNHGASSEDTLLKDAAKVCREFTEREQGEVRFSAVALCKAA

Nc1c(/N=N/c2ccc(-c3ccc(/N=N/c4cc(S(=O)(=O)O)c5ccccc5c4N)cc3)cc2)cc(S(=O)(=O)O)c2ccccc12 [CR, Congo red]
IC50 [1]: 26.9 ± 2.99 µM
Effect on total ubiquitination of normal (non-Dox-treated) cells [2]: slight accumulation of the polyubiquitin chains
Effect on cell viability, compound alone ([3]; H1299, CR 0.0–50.0 µM, 24 h): does not affect
None-toxicity concentration ([3]; determined by cytotoxicity assays): 10 µM
Effect on Dox-induced cell death, H1299 [4]: significantly enhanced Dox-induced cell death
Effect on caspase activity of Dox-treated H1299 cells [5]: Enhanced caspase activity
